Experimental findings from ChEMBL document CHEMBL5512659, “Structure optimizing of flavonoids against both MRSA and VRE” (Eur J Med Chem, 2024) are described below.

Series [1] has as its system Staphylococcus aureus. Description: Synergistic antibacterial activity against methicillin resistant Staphylococcus aureus clinical isolate 003 assessed as fractional inhibitory concentration in presence of norfloxacin. Type of series: functional.
Series [2] concerns Staphylococcus aureus. The series can be described thus: Additive antibacterial activity against methicillin resistant Staphylococcus aureus clinical isolate 003 assessed as fractional inhibitory concentration in presence of adriamycin hydrochloride. Type of series: functional.
The test system of series [3] is Enterococcus faecalis. Description: Synergistic antibacterial activity against multidrug resistant Enterococcus faecalis ATCC 51299 assessed as fractional inhibitory concentration in presence of vancomycin. The class given is functional.
Series [4] has as its system Enterococcus faecalis. Description: Additive antibacterial activity against multidrug resistant Enterococcus faecalis ATCC 51299 assessed as fractional inhibitory concentration in presence of chloramphenicol. Type of series: functional.
Series [5] concerns Enterococcus faecalis. Description: Antibacterial activity against multidrug resistant Enterococcus faecalis ATCC 51299 infected in cyclophosphamide immunosuppressed mouse model of abdominal infection assessed as eradication of bacterial colonies in ascites at 1.25 to 5 mg/kg measured after 60 hrs relative to control. Type of series: functional. As to conditions: dose 1.25-5 mg/kg.

Series [6] relates to Staphylococcus aureus. The series can be described thus: Antibacterial activity against methicillin resistant Staphylococcus aureus clinical isolate 003 infected in cyclophosphamide immunosuppressed mouse model of skin wound infection assessed as reduction in inflammatory cells in skin at 1.25 to 5 mg/kg administered for 7 days and measured on day 8 by H and E staining based analysis. The class given is functional, organism-based. As to conditions: dose 1.25-5 mg/kg, time 8.0 day.

Series [7] has as its system Staphylococcus aureus. The series can be described thus: Antibacterial activity against methicillin resistant Staphylococcus aureus clinical isolate 003 in presence of 2.5 mM/L Ca2+ (reference value: 0.25 ug/ml). Type of series: functional.
For series [8], the system named is Staphylococcus aureus. Description: Synergistic antibacterial activity against methicillin resistant Staphylococcus aureus clinical isolate 003 assessed as fractional inhibitory concentration in presence of lincomycin hydrochloride. Type of series: functional.
A short description of series [9]: Cytotoxicity against HEK293T cells assessed as cell viability at 64 ug/ml measured after 48 hrs relative to control. Type of series: toxicity, cell-based, HEK-293T. To be noted: human, at 64 µg/mL, read-out: Activity.
Series [10] concerns Enterococcus faecalis. Description: Antibacterial activity against multidrug resistant Enterococcus faecalis ATCC 51299 infected in cyclophosphamide immunosuppressed mouse model of abdominal infection assessed as eradication of bacterial colonies in spleen at 1.25 to 5 mg/kg measured after 60 hrs relative to control. To be noted: dose 1.25-5 mg/kg. The class given is functional.

Series [11] relates to Staphylococcus aureus. Description: Antibacterial activity against methicillin resistant Staphylococcus aureus clinical isolate 003 in presence of 1 mM/L Mg2+ (reference value: 0.25 ug/ml). The class given is functional.
Series [12] deals with Staphylococcus aureus. Description: Synergistic antibacterial activity against methicillin resistant Staphylococcus aureus clinical isolate 003 assessed as fractional inhibitory concentration in presence of streptomycin. The class given is functional.
Series [13] deals with Staphylococcus aureus. The series can be described thus: Antibacterial activity against methicillin resistant Staphylococcus aureus clinical isolate 003 infected in cyclophosphamide immunosuppressed mouse model of skin wound infection assessed as wound healing by measuring wound area at 5 mg/kg administered for 7 days and measured on day 8 (reference value: 32.1 […]). The class given is functional. To be noted: time 8 day.

In series [14] the test system is Staphylococcus aureus. Description: Antibacterial activity against methicillin resistant Staphylococcus aureus clinical isolate 003 in presence of 140 mM/L Na+ (reference value: 0.25 ug/ml). Type of series: functional.
Series [15] deals with Enterococcus faecalis. The series can be described thus: Synergistic antibacterial activity against multidrug resistant Enterococcus faecalis ATCC 51299 assessed as fractional inhibitory concentration in presence of tetracycline. The class given is functional.
Series [16] concerns Enterococcus faecalis. The series can be described thus: Additive antibacterial activity against multidrug resistant Enterococcus faecalis ATCC 51299 assessed as fractional inhibitory concentration in presence of lincomycin hydrochloride. The class given is functional.
Series [17] has as its system Enterococcus faecalis. The series can be described thus: Antibacterial activity against multidrug resistant Enterococcus faecalis ATCC 51299 infected in cyclophosphamide immunosuppressed mouse model of abdominal infection assessed as reduction in abscess at 1.25 to 5 mg/kg measured after 60 hrs by H and E staining based analysis. The class given is functional, organism-based. To be noted: dose 1.25-5 mg/kg.

Series [18] has as its system Staphylococcus aureus. Description: Antibacterial activity against methicillin resistant Staphylococcus aureus clinical isolate 003 in presence of 4.5 mM/L K+ (reference value: 0.25 ug/ml). The class given is functional.
Series [19] has as its system Staphylococcus aureus. The series can be described thus: Antibacterial activity against methicillin resistant Staphylococcus aureus clinical isolate 003 infected in cyclophosphamide immunosuppressed mouse model of skin wound infection assessed as reduction in bacterial load in wound at 1.25 mg/kg administered for 7 days and measured on day 8 (reference value: 1.6 x 10^8 CFU). Type of series: functional. As to conditions: time 8 day.

For series [20], the system named is Staphylococcus aureus. The series can be described thus: Additive antibacterial activity against methicillin resistant Staphylococcus aureus clinical isolate 003 assessed as fractional inhibitory concentration in presence of chloramphenicol. The class given is functional.
The nature of series [21]: Toxicity in Galleria mellonella assessed as survival rate at 1.25 to 10 mg/kg observed after 7 days. Type of series: organism-based. As to conditions: in vivo, dose 1.25-10 mg/kg, time 7 day.
Series [22] concerns Enterococcus faecalis. The series can be described thus: Synergistic antibacterial activity against multidrug resistant Enterococcus faecalis ATCC 51299 assessed as fractional inhibitory concentration in presence of ampicillin. Type of series: functional.
The subject of series [23] is Staphylococcus aureus. The series can be described thus: Antibacterial activity against methicillin resistant Staphylococcus aureus clinical isolate 003 infected in cyclophosphamide immunosuppressed mouse model of skin wound infection assessed as reduction in bacterial load in wound at 5 mg/kg administered for 7 days and measured on day 8 (reference value: 1.6 x 10^8 CFU). Type of series: functional. To be noted: time 8 day.

The subject of series [24] is Enterococcus faecalis. Description: Antibacterial activity against multidrug resistant Enterococcus faecalis ATCC 51299 infected in cyclophosphamide immunosuppressed mouse model of abdominal infection assessed as reduction in cell swelling at 1.25 to 5 mg/kg measured after 60 hrs by H and E staining based analysis. Type of series: functional, organism-based. To be noted: dose 1.25-5 mg/kg.

Series [25] relates to Staphylococcus aureus. Description: Antibacterial activity against methicillin resistant Staphylococcus aureus clinical isolate 003 in presence of 140 mM/L Na+ (reference value: 0.5 ug/ml). The class given is functional.
The test system of series [26] is Staphylococcus aureus. Description: Antibacterial activity against methicillin resistant Staphylococcus aureus clinical isolate 003 in presence of 2.5 mM/L Ca2+ (reference value: 0.5 ug/ml). Type of series: functional.
For series [27], the system named is Enterococcus faecalis. Description: Antibacterial activity against multidrug resistant Enterococcus faecalis ATCC 51299 in presence of 2.5 mM/L Ca+ (reference value: 32 ug/ml). The class given is functional.
Series [28] has as its system Staphylococcus aureus. The series can be described thus: Antibacterial activity against methicillin resistant Staphylococcus aureus clinical isolate 003 in presence of 140 mM/L Na+ (reference value: 1 ug/ml). Type of series: functional.
The subject of series [29] is Staphylococcus aureus. The series can be described thus: Antibacterial activity against methicillin resistant Staphylococcus aureus clinical isolate 003 in presence of 4.5 mM/L K+ (reference value: 1 ug/ml). Type of series: functional.

Activity calls are given as the source filed them. The calls are words filed in the database; no cut-off is given here.

On to `CCCCCCc1c(-c2ccc(OCCCCNCCCN)cc2OCCCCNCCCN)oc2cc(OC)cc(O)c2c1=O`, for which the “fractional inhibitory concentration index (FICI)” value in series [1] is recorded as 0.5; in series [2], 0.75; in [3], 0.375; in series [4], 0.75; in series [8], 0.313; in [12], 0.375. The “fractional inhibitory concentration index (FICI)” value in series [15] is 0.25; in series [16] it was 1; in series [20], 1; in series [22], 0.375. Besides, the Activity in series [5] is 92.2%; in series [10], 95.5%; in [13] it was 2.1 mm²; in [19], 9.2 10^6CFU; in [23] it was 9.4 10^6CFU. For the same compound, the outcome in series [6], in series [17] and in [24] was Active. The minimum inhibitory concentration (MIC) in series [7] stood at 0.25 µg/mL; in series [11], 0.25 µg/mL; in series [14], 0.25 µg/mL; in series [18] it was 0.125 µg/mL. Besides, in series [9], the viability at 48 h, 64 ug/ml was over 50%. Also, in series [21], the survival at 168 h was determined as 100%.
Consider `CCCCCCc1c(-c2ccc(OCCCCN(C)C)cc2OCCCCN(C)C)oc2cc(OC)cc(O)c2c1=O`, for which the MIC in [25] and in [26] was 1 µg/mL throughout.
Take `CCCCCCc1c(-c2ccc(OCC(=O)CN[C@H](CCCNC(=N)N)C(=O)OC)cc2OCC(=O)CN[C@H](CCCNC(=N)N)C(=O)OC)oc2cc(OC)cc(O)c2c1=O`: the MIC in series [27] was 32 µg/mL; in [28] it was 1 µg/mL; in series [29], 2 µg/mL.
